Test results published in PubChem BioAssay (NCI).
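Each compound was tested at five concentrations against cells in 96-well plates for 48 hours. At the GI50, growth is halved. At the TGI there is no net growth.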

Key:
Assay in all cases: inhibition of tumour cell growth, NCI panel, 48 h
DLD-1 colon = test system: DLD-1 colon
DMS 273 small cell lung = test system: DMS 273 small cell lung
KM20L2 colon = test system: KM20L2 colon
LXFL 529 NSCLC = test system: LXFL 529 NSCLC
M19-MEL melanoma = test system: M19-MEL melanoma
MDA-N = test system: MDA-N
RXF-631 renal = test system: RXF-631 renal
XF 498 CNS = test system: XF 498 CNS
HOP-18 NSCLC = test system: HOP-18 NSCLC

CCC[CH2][Sn]1([CH2]CCC)[O]N=C(c2ccccc2)C(c2ccccc2)[O]1 (configuration not stated)
GI50 (DLD-1 colon): 1.79 µM
TGI (DLD-1 colon): 3.58 µM
GI50 (DMS 273 small cell lung): 1.59 µM
TGI (DMS 273 small cell lung): 3.05 µM
GI50 (KM20L2 colon): 2.54 µM
TGI (KM20L2 colon): 8.74 µM
GI50 (LXFL 529 NSCLC): 0.316 µM
TGI (LXFL 529 NSCLC): 1.23 µM
GI50 (M19-MEL melanoma): 1.56 µM
TGI (M19-MEL melanoma): 3.13 µM

C=C(c1nc2ccc(Cl)cc2[nH]c1=O)C(O)c1ccc(C(O)C(=O)c2nc3ccc(Cl)cc3[nH]c2=O)cc1 (configuration not stated)
TGI (DLD-1 colon): > 100 µM
TGI (DMS 273 small cell lung): > 100 µM
TGI (KM20L2 colon): > 100 µM
TGI (LXFL 529 NSCLC): > 100 µM
TGI (M19-MEL melanoma): > 100 µM
TGI (MDA-N): > 100 µM
TGI (RXF-631 renal): > 100 µM
TGI (XF 498 CNS): > 100 µM

COc1ccc2c(c1)CCCC(Br)C2=O (configuration not stated)
TGI (MDA-N): 9.21 µM

COc1cc(C(Cc2ccccc2)NC(C)=O)oc(=O)c1 (configuration not stated)
TGI (DLD-1 colon): > 100 µM
TGI (DMS 273 small cell lung): > 100 µM
TGI (KM20L2 colon): > 100 µM
TGI (LXFL 529 NSCLC): > 100 µM
TGI (M19-MEL melanoma): > 100 µM
TGI (XF 498 CNS): > 100 µM

S=C(Nc1ccccc1)N(/N=C/C=C/c1ccccc1)c1nnc(-c2ccccc2)c(-c2ccccc2)n1
TGI (DLD-1 colon): > 100 µM
TGI (DMS 273 small cell lung): > 100 µM
TGI (KM20L2 colon): > 100 µM
TGI (M19-MEL melanoma): > 100 µM
TGI (RXF-631 renal): > 100 µM
TGI (XF 498 CNS): > 100 µM

CN(C)N=Nc1ccc(NC=O)cc1
TGI (MDA-N): > 100 µM

O=C(/C=C/c1ccccc1O)c1ccccc1O
TGI (DLD-1 colon): > 100 µM
TGI (DMS 273 small cell lung): > 100 µM
TGI (KM20L2 colon): > 100 µM
TGI (M19-MEL melanoma): > 100 µM

Cc1ccc(Cc2c(=O)[nH]nc3ccccc23)cc1
TGI (DLD-1 colon): > 100 µM
TGI (DMS 273 small cell lung): > 100 µM
TGI (HOP-18 NSCLC): > 100 µM
TGI (KM20L2 colon): > 100 µM
TGI (M19-MEL melanoma): > 100 µM
TGI (RXF-631 renal): > 100 µM
TGI (XF 498 CNS): > 100 µM

COC(=O)c1cc2c(s1)C(=O)c1ccccc1-2
TGI (DLD-1 colon): > 100 µM
TGI (DMS 273 small cell lung): > 100 µM
TGI (HOP-18 NSCLC): > 100 µM
TGI (KM20L2 colon): > 100 µM
TGI (LXFL 529 NSCLC): > 100 µM
TGI (M19-MEL melanoma): > 100 µM
TGI (RXF-631 renal): > 100 µM

COC(=O)C(=Cc1cc(OC)ccc1OC)C(=O)OC
TGI (DLD-1 colon): 91.3 µM
TGI (DMS 273 small cell lung): > 100 µM
TGI (LXFL 529 NSCLC): 36 µM
TGI (M19-MEL melanoma): 79.5 µM
TGI (RXF-631 renal): 88.3 µM
TGI (XF 498 CNS): 47.4 µM

Cc1ccc(S(=O)(=O)N(CC(=O)O)c2ccccc2)cc1
TGI (DLD-1 colon): > 100 µM
TGI (DMS 273 small cell lung): > 100 µM
TGI (HOP-18 NSCLC): > 100 µM
TGI (KM20L2 colon): > 100 µM
TGI (LXFL 529 NSCLC): > 100 µM
TGI (M19-MEL melanoma): > 100 µM
